We go through one molecule from patent US12083355B1, “Preparation of photodynamic therapy tablet and method for construction and application of anti-tumor model for enhanced cancer treatment” (Sichuan Cancer Hospital, priority 2023, dated 2024).

What all share (experiment): CCK-8 cell viability assay, anti-tumor model with wireless self-powered photodynamic tablet
What all share (format): cell-based
Conditions in all cases: 10 μM IKE, PDT groups: 8 μM Ce6 6 h, 20 min 660 nm light, CCK-8 after 24 hours

Series [1] deals with mouse lung cancer cells LLC. The protocol: (§1) This embodiment provides a comprehensive account of constructing an anti-tumor model utilizing the wireless self-powered photodynamic tablet (8), using human lung cancer cells A549 and H1299, as well as mouse lung cancer cells LLC. The experimental procedure involved seeding 8,000 cells per well in a 96-well plate and allowing them to adhere for 24 hours. The cells were divided into four groups: control group (Ctrl), ferroptosis inducer (IKE) group, photodynamic therapy (PDT) group, and combined treatment of IKE and PDT (IKE+PDT) group. The culture medium was then replaced accordingly: the PDT and IKE+PDT groups received 100 μL of serum-free medium containing 8 μM photosensitizer Ce6, while the Ctrl and IKE groups were replaced with serum-free medium. Following this, the cells were incubated for 6 hours under light avoidance conditions (i.e., in the substantial absence of visible light). Subsequently, the culture medium was replaced again: the IKE and IKE+PDT groups received fresh complete medium containing 10 μM IKE, while the Ctrl and PDT groups received complete medium. The PDT and IKE+PDT groups underwent 20 minutes of photodynamic therapy (e.g., with 660 nm light from the photodynamic tablet). After 24 hours of incubation, a cell viability assay was conducted using the CCK-8 reagent kit. Each experiment was repeated three times, and the data were subjected to statistical analysis.

Series [2] concerns human lung cancer cells A549. The protocol:
as §1

Series [3] relates to human lung cancer cells H1299. The procedure:
as §1

Consider `CC(C)Oc1ccc(C(=O)Cn2ccnc2)cc1-n1c(CN2CCN(C(=O)COc3ccc(Cl)cc3)CC2)nc2ccccc2c1=O` [IKE], for which the “decrease in cell viability compared to the control group” value in series [1] was 30.3%; in series [2], 22.4%; in series [3] it was 26.0%.
